# Assay results: patent US9012431B2, “Boron-containing small molecules as anti-inflammatory agents” (Anacor Pharmaceuticals, Inc., priority 2008, dated 2015)
# Legend:
# [1] = test system: IL-5 production by human PBMCs; experiment: IL-5 production by LPS- or PHA-stimulated PBMCs; format: cell-based; conditions: PBMC; LPS- and PHA-induced cytokine production by human PBMCs; read-out: IC50 IL-5 (Th2 cytokines)
# [2] = test system: TNF-α secretion from peripheral blood mononuclear cells (PBMCs); experiment: TNF-α secretion from PBMCs stimulated by LPS; format: cell-based, human; conditions: PBMC; LPS- and PHA-induced cytokine production by human PBMCs; read-out: IC50 TNFα (pro-inflammatory cytokines)
# Text: (§1) Compounds were screened by a biochemical assay against PDE4 enzyme and cell-based cytokine release assays using PBMCs stimulated by LPS or phytohemagglutinin (PHA).
# [3] = test system: IL-1β production by human PBMCs; experiment: IL-1β production by LPS- or PHA-stimulated PBMCs; format: cell-based; conditions: PBMC; LPS- and PHA-induced cytokine production by human PBMCs; read-out: IC50 IL-1β (pro-inflammatory cytokines)
# [4] = test system: IFN-γ secretion from PBMCs; experiment: IFN-γ secretion from PBMCs stimulated with PHA; format: cell-based, human; conditions: PBMC; LPS- and PHA-induced cytokine production by human PBMCs; read-out: IC50 IFNg (Th1 cytokines)
# Text: as §1
# [5] = test system: IL-10 production by human PBMCs; experiment: IL-10 production by LPS- or PHA-stimulated PBMCs; format: cell-based; conditions: PBMC; LPS- and PHA-induced cytokine production by human PBMCs; read-out: IC50 IL-10 (Th2 cytokines)
# [6] = test system: IL-2 secretion from PBMCs; experiment: IL-2 secretion from PBMCs stimulated with PHA; format: cell-based, human; conditions: PBMC; LPS- and PHA-induced cytokine production by human PBMCs; read-out: IC50 IL-2 (Th1 cytokines)
# Text: as §1
# TNF-α = experiment: Cytokine assay, TNF-α release from PBMC; format: cell-based; conditions: Homo sapiens, PBMC, 24 h, 1 μg/mL LPS, supernatant at 24 hours
# How it was run: (§2)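 Cytokine released into the medium was the read-out. Thawed human peripheral blood mononuclear cells in RPMI 1640/10% FBS received test article at 0.01–10 μM, in triplicate wells.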
# IL-5 = experiment: Cytokine assay, IL-5 release from PBMC; format: cell-based; conditions: human PBMC, 20 ug/mL PHA, supernatant at 48 hours
# How it was run: as §2
# IL-2 = experiment: Cytokine assay, IL-2 release from PBMC; format: cell-based; conditions: human PBMC, 20 ug/mL PHA, supernatant at 24 hours
# How it was run: as §2
# IFN-γ = experiment: Cytokine assay, IFN-γ release from PBMC; format: cell-based; conditions: human PBMC, 20 ug/mL PHA, supernatant at 24 hours
# How it was run: as §2
# IL-10 = experiment: Cytokine assay, IL-10 release from PBMC; format: cell-based; conditions: human PBMC, 20 ug/mL PHA, supernatant at 48 hours
# How it was run: as §2
# PMA induced ear edema = PMA induced ear edema (acute skin irritation model); format: in vivo; conditions: acetone/ethanol vehicle; 5% C27, 15% dexamethasone; p<0.01
# [7] = test system: CD-1 (Crl.) derived male mice; experiment: Phorbol Ester Induced Mouse Ear Edema Model; format: in vivo; conditions: topical, 6 h, 1 mg/ear × 2 topical, vehicle not given, ear swelling 6 hours after PMA
# How it was run: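 Test compounds in acetone:ethanol 1:1 were applied topically to both ears 30 min before and 15 min after PMA challenge; dexamethasone positive control followed the same schedule. Ear thickness was measured by micrometer 6 h after PMA, and percent inhibition was calculated from ear-thickness increase versus vehicle controls.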
# PDE1A3 = biological target: T1, PDE1A3 (Homo sapiens, UniProt P54750); experiment: PDE1 inhibition; format: biochemical; conditions: standard: 8-methoxymethyl-IBMX
# T1 construct: made in house; host or cells: baculoviral expression system
# T1 sequence (P54750 whole entry): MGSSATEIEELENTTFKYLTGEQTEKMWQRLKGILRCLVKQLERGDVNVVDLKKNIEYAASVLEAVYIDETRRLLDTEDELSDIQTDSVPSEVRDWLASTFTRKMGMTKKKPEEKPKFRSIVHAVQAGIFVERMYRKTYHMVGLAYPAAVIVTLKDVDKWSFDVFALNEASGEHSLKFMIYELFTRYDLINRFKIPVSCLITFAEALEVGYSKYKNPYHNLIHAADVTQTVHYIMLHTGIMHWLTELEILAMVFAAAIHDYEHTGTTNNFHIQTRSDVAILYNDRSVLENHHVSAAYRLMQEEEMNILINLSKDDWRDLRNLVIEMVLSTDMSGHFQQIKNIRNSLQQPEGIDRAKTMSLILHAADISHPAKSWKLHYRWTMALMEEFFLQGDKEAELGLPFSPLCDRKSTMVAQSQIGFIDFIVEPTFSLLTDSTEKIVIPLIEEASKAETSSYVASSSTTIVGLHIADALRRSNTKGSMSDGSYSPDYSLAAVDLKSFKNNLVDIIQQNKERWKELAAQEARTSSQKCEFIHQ
# PDE7A1 = biological target: T2, PDE7A1 (Homo sapiens, UniProt Q13946); experiment: PDE7 inhibition; format: biochemical; conditions: standard: BRL-50481; read-out: IC50 PDE7A1
# T2 construct: made in house; host or cells: baculoviral expression system
# T2 sequence (Q13946 whole entry): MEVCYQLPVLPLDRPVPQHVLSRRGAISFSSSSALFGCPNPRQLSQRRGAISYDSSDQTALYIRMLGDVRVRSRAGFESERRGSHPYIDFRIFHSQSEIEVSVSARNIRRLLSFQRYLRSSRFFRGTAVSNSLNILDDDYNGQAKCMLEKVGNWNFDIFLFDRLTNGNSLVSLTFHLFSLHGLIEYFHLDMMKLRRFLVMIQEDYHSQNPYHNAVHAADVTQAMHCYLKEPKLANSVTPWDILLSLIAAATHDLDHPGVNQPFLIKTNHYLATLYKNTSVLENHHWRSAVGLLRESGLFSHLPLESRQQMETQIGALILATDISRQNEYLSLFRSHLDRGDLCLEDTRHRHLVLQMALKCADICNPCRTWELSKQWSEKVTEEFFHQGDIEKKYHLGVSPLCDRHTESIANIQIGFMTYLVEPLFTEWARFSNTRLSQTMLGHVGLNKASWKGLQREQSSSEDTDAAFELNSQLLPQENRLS
# PDE3 Cat = test system: T3, PDE3 Cat; experiment: PDE3 inhibition; format: biochemical; conditions: standard: Cilostazol
# T3 construct: Recombinant human PDE enzymes were expressed in a baculoviral system.; PDE isoforms tested include
SMILES,IC50 [1] [µM],IC50 [2] [µM],IC50 [3] [µM],IC50 [4] [µM],IC50 [5] [µM],IC50 [6] [µM],further results
COc1ccc([C@]2(C#N)CC[C@@H](C(=O)O)CC2)cc1OC1CCCC1 [Cilomilast],< 1,< 1,> 30,< 1,1 to 10,< 1,
"COc1ccc(C2CNC(=O)C2)cc1OC1CCCC1 (stereo not shown) [Rolipram, rolipram, reference compound]",< 1,< 1,> 30,< 1,< 1,< 1,IC50 (TNF-α): < 1 µM; IC50 (IL-5): < 1 µM; IC50 (IL-2): < 1 µM; IC50 (IFN-γ): < 1 µM; IC50 (IL-10): < 1 µM
"C[C@@H]1C[C@H]2[C@@H]3CCC4=CC(=O)C=C[C@]4(C)[C@@]3(F)[C@@H](O)C[C@]2(C)[C@@]1(O)C(=O)CO [dexamethasone, reference compound]",,,,,,,inhibition of PMA induced ear edema (PMA induced ear edema): 73%; inhibition in vivo at 1 mg [7]: 60 to 90%
"COCc1nc2c([nH]1)c(=O)n(C)c(=O)n2CC(C)C [8-methoxymethyl-IBMX, reference compound]",,,,,,,IC50 (PDE1A3): 1 to 10 µM
"Cc1ccc([N+](=O)[O-])cc1S(=O)(=O)N(C)C [BRL-50481, reference compound]",,,,,,,IC50 (PDE7A1): 1 to 10 µM
"O=C1CCc2cc(OCCCCc3nnnn3C3CCCCC3)ccc2N1 [Cilostazol, cilostazol, reference compound]",,,,,,,IC50 (PDE3 Cat): 1 to 10 µM
